{
  "source": "ChEMBL document CHEMBL1201862",
  "about": "“PubChem BioAssay data set” (2004)",
  "key": {"[1]": {"biological_target": "1-acylglycerol-3-phosphate O-acyltransferase ABHD5/Perilipin-5 (Homo sapiens, UniProt Q00G26+Q8WTS1)", "sequence (Q00G26 whole entry, the tested form may be a part)": "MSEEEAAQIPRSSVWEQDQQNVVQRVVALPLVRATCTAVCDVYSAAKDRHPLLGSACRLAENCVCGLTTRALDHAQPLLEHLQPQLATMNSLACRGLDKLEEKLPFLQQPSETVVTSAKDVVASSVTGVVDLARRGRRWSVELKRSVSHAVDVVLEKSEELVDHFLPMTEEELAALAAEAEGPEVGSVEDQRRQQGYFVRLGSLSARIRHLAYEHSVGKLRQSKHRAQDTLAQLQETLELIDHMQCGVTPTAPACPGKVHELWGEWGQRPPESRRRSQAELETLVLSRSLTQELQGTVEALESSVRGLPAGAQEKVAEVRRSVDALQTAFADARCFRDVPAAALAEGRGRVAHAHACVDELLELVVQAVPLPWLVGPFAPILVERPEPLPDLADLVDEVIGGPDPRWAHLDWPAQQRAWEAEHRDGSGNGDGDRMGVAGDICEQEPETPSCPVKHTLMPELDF", "sequence (Q8WTS1 whole entry, the tested form may be a part)": "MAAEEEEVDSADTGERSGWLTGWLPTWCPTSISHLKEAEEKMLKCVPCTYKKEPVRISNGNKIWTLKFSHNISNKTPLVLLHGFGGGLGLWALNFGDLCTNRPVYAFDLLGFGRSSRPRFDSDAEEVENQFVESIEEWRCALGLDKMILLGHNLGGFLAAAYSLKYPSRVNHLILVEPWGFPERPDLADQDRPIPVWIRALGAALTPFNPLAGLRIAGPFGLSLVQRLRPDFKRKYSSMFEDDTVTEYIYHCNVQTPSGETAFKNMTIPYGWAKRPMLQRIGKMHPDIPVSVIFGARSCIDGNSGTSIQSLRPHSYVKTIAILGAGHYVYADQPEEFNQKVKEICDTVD", "test": "Luminescence-based biochemical high throughput dose response assay for inhibitors of the interaction of the lipase co-activator protein, abhydrolase domain containing 5 (ABHD5) with perilipin-5 (MLDP; PLIN5) (2K validation set). [Related pubchem assays (depositor defined):AID493035, AID493241]"}, "Perilipin-1/ABHD5": {"biological_target": "Perilipin-1/ABHD5 (Homo sapiens, UniProt O60240+Q8WTS1)", "sequence (Q8WTS1 whole entry, the tested form may be a part)": "as above", "sequence (O60240 whole entry, the tested form may be a part)": "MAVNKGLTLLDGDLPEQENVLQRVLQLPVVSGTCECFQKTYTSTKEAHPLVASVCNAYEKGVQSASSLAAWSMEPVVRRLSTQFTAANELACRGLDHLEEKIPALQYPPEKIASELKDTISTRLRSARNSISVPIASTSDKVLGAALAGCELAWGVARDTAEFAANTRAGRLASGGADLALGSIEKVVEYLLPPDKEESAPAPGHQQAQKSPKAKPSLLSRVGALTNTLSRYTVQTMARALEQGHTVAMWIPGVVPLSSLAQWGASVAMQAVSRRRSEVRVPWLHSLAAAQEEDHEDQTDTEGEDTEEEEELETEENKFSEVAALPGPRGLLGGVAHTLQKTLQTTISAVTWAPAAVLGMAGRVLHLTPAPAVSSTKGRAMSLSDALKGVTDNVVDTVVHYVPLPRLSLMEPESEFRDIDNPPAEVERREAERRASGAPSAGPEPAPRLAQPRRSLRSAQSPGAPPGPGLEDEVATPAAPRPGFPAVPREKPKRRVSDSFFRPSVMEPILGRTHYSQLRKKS", "test": "Luminescence-based biochemical high throughput dose response assay for inhibitors of the interaction of the lipase co-activator protein, abhydrolase domain containing 5 (ABHD5) with perilipin-1 (PLIN1) (2K validation set). [Related pubchem assays (depositor defined):AID493027, AID493057]"}, "Vero [2]": {"system": "Vero", "test": "cytotoxicity of synthesized analogs in Vero 76, SAR follow-up, cytotoxicity control for West Nile virus antiviral project, Vero 76 cells (AID 2414)", "assay_type": "functional", "conditions": "Chlorocebus sabaeus"}, "Vero [3]": {"system": "Vero", "test": "cytotoxicity of synthesized analogs in Vero cells, SAR follow-up, cytotoxicity control for West Nile virus antiviral project, cell-based, set II (AID 2402)", "assay_type": "functional", "conditions": "Chlorocebus sabaeus"}, "Vero [4]": {"system": "Vero", "test": "Vero E6 cell cytotoxicity, SAR follow-up, cytotoxicity control for West Nile virus antiviral project, synthesized analogs (AID 2244)", "assay_type": "functional", "conditions": "Chlorocebus sabaeus"}, "[5]": {"test": "A Cell Based Assay for the Identification of Probe candidate Compounds with Anti- Venezuelan Equine Encephalitis virus. [Related pubchem assays: 2409, 2419, 1621, 2238, 2405, 2024, 2065, 2402, 2414, 1635, 1650, 2244 ]", "assay_type": "functional"}, "Vero [6]": {"system": "Vero", "test": "West Nile virus CPE inhibition, SAR follow-up, cell-based, synthesized analogs (AID 2238)", "assay_type": "functional", "conditions": "Chlorocebus sabaeus"}, "Vero [7]": {"system": "Vero", "test": "West Nile virus cytopathic effect inhibition, cell-based (AID 2419)", "assay_type": "functional", "conditions": "Chlorocebus sabaeus"}, "[8]": {"biological_target": "Dual specificity protein phosphatase 3 (Homo sapiens, UniProt P51452)", "sequence (P51452 whole entry)": "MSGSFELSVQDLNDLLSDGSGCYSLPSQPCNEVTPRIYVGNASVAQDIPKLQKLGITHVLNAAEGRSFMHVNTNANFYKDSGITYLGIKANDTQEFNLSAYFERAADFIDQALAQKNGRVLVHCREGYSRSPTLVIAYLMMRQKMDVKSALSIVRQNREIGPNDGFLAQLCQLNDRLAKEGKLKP", "test": "VHR1 inhibitor Ki determination, SAR follow-up, biochemical, colorimetric (AID 2004)"}, "Large T antigen": {"biological_target": "Large T antigen (Simian virus 40, UniProt P03070)", "sequence (P03070 whole entry)": "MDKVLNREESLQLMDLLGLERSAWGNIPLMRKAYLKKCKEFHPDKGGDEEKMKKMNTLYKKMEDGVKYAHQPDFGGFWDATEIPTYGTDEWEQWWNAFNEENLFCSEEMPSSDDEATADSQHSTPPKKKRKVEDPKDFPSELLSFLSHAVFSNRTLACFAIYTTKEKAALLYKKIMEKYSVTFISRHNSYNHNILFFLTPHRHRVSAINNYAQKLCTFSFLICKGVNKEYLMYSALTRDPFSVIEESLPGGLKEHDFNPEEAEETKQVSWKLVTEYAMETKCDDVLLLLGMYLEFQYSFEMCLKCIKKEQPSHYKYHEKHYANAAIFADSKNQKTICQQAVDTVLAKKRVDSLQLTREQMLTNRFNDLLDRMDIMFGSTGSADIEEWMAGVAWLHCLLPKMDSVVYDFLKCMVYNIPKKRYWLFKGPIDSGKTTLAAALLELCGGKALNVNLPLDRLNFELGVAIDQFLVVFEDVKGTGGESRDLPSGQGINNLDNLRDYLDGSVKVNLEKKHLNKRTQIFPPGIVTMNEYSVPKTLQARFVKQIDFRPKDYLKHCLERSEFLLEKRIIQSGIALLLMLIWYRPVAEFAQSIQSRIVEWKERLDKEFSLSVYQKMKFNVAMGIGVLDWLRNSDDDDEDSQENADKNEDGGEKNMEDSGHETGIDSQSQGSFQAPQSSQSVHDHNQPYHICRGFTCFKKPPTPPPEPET", "test": "A confirmatory biochemical assay using the ADP-Hunter methodology, purified TAg, and ATP to quantify activity of synthesized compounds that inhibit the ATPase activity of Tag (3). [Related pubchem assays (depositor defined):AID1903, AID1909, AID2102, AID2501, AID2615, AID2775, AID435001, AID449729]", "set-up": "species or system Betapolyomavirus macacae"}, "[9]": {"biological_target": "Mannose-6-phosphate isomerase (Homo sapiens, UniProt P34949)", "test": "inhibitors of human PMI, primary screen, biochemical, fluorescence intensity, coupled assay (AID 1209)"}, "CAAX prenyl protease 2": {"biological_target": "CAAX prenyl protease 2 (Saccharomyces cerevisiae S288c, UniProt Q03530)", "sequence (Q03530 whole entry)": "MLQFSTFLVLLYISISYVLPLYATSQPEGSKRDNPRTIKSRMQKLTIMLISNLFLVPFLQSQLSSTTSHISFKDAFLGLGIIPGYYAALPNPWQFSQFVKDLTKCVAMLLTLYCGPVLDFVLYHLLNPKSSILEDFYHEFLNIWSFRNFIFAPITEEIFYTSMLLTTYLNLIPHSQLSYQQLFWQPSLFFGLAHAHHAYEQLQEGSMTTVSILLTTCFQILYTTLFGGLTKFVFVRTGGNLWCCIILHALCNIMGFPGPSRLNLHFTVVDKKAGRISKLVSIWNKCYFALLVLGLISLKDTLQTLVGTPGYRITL", "assay_type": "biochemical"}, "[10]": {"biological_target": "T1, Delta-type opioid receptor (Homo sapiens, UniProt P41143)", "T1 sequence (P41143 whole entry)": "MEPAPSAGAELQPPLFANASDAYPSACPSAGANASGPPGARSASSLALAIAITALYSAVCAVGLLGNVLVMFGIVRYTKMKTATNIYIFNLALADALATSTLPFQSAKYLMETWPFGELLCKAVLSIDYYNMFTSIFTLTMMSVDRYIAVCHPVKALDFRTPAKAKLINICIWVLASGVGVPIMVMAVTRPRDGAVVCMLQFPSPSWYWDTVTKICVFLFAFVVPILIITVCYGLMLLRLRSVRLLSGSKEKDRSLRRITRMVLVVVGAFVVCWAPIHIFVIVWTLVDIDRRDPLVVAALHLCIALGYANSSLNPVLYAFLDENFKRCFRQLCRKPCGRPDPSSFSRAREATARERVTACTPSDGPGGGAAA", "test": "HTS Image-Based Screen for Antagonists of the DOR Receptor. [Related pubchem assays (depositor defined):AID1777, AID1785, AID1786, AID2133]", "assay_type": "functional"}, "Mu-type opioid receptor": {"biological_target": "Mu-type opioid receptor (Homo sapiens, UniProt P35372)", "sequence (P35372 whole entry)": "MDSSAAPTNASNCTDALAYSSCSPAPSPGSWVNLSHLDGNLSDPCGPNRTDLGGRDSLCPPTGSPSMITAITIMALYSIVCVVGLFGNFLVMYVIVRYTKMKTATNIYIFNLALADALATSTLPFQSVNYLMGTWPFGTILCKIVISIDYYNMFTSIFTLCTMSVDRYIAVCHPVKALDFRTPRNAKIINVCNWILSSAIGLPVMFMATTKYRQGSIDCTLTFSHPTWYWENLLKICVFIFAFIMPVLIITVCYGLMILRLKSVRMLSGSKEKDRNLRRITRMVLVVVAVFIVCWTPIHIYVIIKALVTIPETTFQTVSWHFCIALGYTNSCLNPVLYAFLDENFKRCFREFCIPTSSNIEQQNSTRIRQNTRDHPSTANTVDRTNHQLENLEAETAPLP", "test": "HTS Image-Based Screen for Agonists of the MOR Receptor. [Related pubchem assays (depositor defined):AID1777, AID1785, AID1786, AID2133]", "assay_type": "functional"}, "[11]": {"biological_target": "T1, Delta-type opioid receptor", "test": "HTS Image-Based Screen for Agonists of the DOR Receptor. [Related pubchem assays (depositor defined):AID1777, AID1786, AID2133]", "assay_type": "functional"}, "[12]": {"biological_target": "T2, Kappa-type opioid receptor (Homo sapiens, UniProt P41145)", "T2 sequence (P41145 whole entry)": "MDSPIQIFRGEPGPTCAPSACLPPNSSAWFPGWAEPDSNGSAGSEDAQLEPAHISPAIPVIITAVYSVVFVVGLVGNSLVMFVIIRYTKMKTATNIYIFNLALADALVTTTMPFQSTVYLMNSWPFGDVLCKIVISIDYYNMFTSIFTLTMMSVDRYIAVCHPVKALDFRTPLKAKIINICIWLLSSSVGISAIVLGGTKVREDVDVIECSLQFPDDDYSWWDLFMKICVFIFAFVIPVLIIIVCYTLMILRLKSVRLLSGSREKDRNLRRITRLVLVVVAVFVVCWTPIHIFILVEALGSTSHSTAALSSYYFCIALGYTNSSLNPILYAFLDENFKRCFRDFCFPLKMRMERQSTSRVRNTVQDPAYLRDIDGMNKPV", "assay_type": "functional"}, "[13]": {"biological_target": "T2, Kappa-type opioid receptor", "assay_type": "functional", "remark": "listed apart in the source"}, "[14]": {"biological_target": "T2, Kappa-type opioid receptor", "assay_type": "functional", "remark": "listed apart in the source"}, "ORF 73": {"biological_target": "ORF 73 (Human herpesvirus 8, UniProt O40947)", "sequence (O40947 whole entry)": "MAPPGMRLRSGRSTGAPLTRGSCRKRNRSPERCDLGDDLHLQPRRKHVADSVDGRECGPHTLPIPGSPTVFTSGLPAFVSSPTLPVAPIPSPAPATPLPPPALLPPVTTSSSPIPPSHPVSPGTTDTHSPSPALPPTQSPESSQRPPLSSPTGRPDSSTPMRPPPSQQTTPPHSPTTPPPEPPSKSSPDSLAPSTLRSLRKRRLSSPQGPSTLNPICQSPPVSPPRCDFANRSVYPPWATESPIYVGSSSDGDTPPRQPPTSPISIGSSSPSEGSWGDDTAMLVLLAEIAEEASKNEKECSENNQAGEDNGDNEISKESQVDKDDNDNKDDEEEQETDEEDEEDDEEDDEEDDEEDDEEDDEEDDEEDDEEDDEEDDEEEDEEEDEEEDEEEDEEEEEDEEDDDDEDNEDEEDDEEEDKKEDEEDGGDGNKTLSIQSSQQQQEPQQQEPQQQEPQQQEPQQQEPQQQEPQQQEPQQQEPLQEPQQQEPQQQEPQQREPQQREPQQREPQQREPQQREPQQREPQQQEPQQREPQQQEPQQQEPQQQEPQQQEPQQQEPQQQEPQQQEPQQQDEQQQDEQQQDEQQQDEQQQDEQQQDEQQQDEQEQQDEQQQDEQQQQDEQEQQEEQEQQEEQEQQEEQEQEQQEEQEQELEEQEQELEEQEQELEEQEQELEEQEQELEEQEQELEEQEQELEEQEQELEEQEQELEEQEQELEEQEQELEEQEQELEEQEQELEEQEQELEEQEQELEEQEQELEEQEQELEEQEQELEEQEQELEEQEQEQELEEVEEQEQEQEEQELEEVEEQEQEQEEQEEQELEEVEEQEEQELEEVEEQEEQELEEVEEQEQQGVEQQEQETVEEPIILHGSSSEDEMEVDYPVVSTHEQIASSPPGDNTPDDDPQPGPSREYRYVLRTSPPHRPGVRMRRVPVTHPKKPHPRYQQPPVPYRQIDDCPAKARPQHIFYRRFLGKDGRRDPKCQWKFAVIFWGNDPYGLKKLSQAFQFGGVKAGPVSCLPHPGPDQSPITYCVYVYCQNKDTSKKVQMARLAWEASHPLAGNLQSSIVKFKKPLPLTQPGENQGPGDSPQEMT", "test": "inhibitors of C-LANA binding to LBS DNA, dose response, biochemical, fluorescence polarization, cherry-picked samples (AID 504725);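 further: fluorescence polarization of a labeled DNA duplex reporting LANA DNA binding; potency is for inhibitors that block LANA binding to the DNA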", "set-up": "species or system Human gammaherpesvirus 8"}, "[15]": {"biological_target": "T3, Carboxy-terminal domain RNA polymerase II polypeptide A small phosphatase 1 (Homo sapiens, UniProt Q9GZU7)", "T3 sequence (Q9GZU7 whole entry)": "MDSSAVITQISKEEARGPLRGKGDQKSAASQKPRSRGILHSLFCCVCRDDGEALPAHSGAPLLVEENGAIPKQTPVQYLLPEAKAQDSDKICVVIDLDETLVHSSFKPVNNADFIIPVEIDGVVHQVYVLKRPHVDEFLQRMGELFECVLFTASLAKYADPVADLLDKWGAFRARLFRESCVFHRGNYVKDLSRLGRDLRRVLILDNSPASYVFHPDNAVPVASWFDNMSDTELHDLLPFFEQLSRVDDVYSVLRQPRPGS", "test": "inhibitors of CTDSP1, concentration-response testing, biochemical assay, absorbance-based, actives from ultra-high-throughput screening (AID 540297)", "assay_type": "functional"}},
  "note": "The source made the active and inactive calls.",
  "data": [
    {"smiles": "CCCCC/C=C\\C[C@H](O)/C=C/c1cccc(C[C@H](O)CCCCO)n1", "values": [
      {"measurement": "IC50", "setting": "[1]", "result": "5.28 µM (active)"},
      {"measurement": "IC50", "setting": "Perilipin-1/ABHD5", "result": "5.05 µM (active)"}
    ]},
    {"smiles": "COc1ccc(-c2csc(N(CCCN(C)C)C(=O)c3ccccc3Cl)n2)cc1", "values": [
      {"measurement": "CC50", "setting": "Vero [2]", "result": "20.2 µM (active)"},
      {"measurement": "CC50", "setting": "Vero [3]", "result": "9.54 µM (active)"},
      {"measurement": "CC50", "setting": "Vero [4]", "result": "28.4 µM (active)"},
      {"measurement": "IC50", "setting": "[5]", "result": "5.37 µM (active)"},
      {"measurement": "IC50", "setting": "Vero [6]", "result": "29.5 µM (active)"},
      {"measurement": "IC50", "setting": "Vero [7]", "result": "> 25 µM (active)"}
    ]},
    {"smiles": "COc1cccc2c1NC(c1cccc3ccccc13)C1CC=CC21", "note": "(stereo not given)", "values": [
      {"measurement": "Ki", "setting": "[8]", "result": "141 µM (inactive)"}
    ]},
    {"smiles": "Oc1ccc(Cc2ccc(O)cc2)cc1", "values": [
      {"measurement": "IC50", "setting": "Large T antigen", "result": "70.1 µM (active)"}
    ]},
    {"smiles": "c1ccc(Nc2cccc(Nc3ccccc3)n2)cc1", "values": [
      {"measurement": "IC50", "setting": "[9]", "result": "> 50 µM (not active)"},
      {"measurement": "AC50", "setting": "CAAX prenyl protease 2", "result": "13.3 µM (active)"}
    ]},
    {"smiles": "CCC(C)(C(=O)NC1CCCCC1)N(Cc1cccs1)C(=O)c1ccccn1", "note": "(stereo not given)", "values": [
      {"measurement": "IC50", "setting": "[10]", "result": "> 32 µM (inactive)"},
      {"measurement": "EC50", "setting": "Mu-type opioid receptor", "result": "> 32 µM (inactive)"},
      {"measurement": "EC50", "setting": "[11]", "result": "> 32 µM (inactive)"},
      {"measurement": "EC50", "setting": "[12]", "result": "< 0.5", "unit": "µM"},
      {"measurement": "IC50", "setting": "[13]", "result": "> 5 µM (inactive)"},
      {"measurement": "EC50", "setting": "[14]", "result": 0.0599, "unit": "µM"}
    ]},
    {"smiles": "N=C1/C(=C/c2ccc(-c3cccc(C(=O)O)c3)o2)C(=O)N=C2SC(CC(=O)N3CCOCC3)=NN12", "values": [
      {"measurement": "AC50", "setting": "ORF 73", "result": "67.7 µM (active)"},
      {"measurement": "IC50", "setting": "[15]", "result": "3.21 µM (active)"}
    ]}
  ]
}
